How the values were obtained:
[1] = test system: Wiga rats; assay: Induction of mydriasis (MYD); assay type: in vivo; details: Rattus norvegicus, PO (oral route), pupil diameter >25 units, 1-3 h post-administration
Procedure: 3) Induction of Mydriasis
The pupil diameter of Wiga rats was measured with a microscopic micrometer (1 unit=1/24 mm). Criteria for drug-induced effects: pupil diameter >25 units for mydriasis (in controls: 1.9%) 1, 2 or 3 h post-administration of the test compound (wherein the maximum pupil diameter over the full 3 h period is reported).

[2] = test system: rats; assay: Reversal of the effect of the mGluR2 PAM JNJ-42153605-induced inhibition of scopolamine-induced hyperlocomotion (SCOP JNJ-42153605); assay type: in vivo, rat; details: PO (oral route), rats, reversal criterion total distance >1500 cm; for ED50: Rattus norvegicus
Procedure: 2) Reversal of the Effect of the mGluR2 PAM JNJ-42153605-Induced Inhibition of Scopolamine-Induced Hyperlocomotion Apparatus
Motor activity was measured in microprocessor-based motor activity arenas (closed gray PVC cylinders with a height of 39 cm and a diameter of 31 cm). Each arena was placed on an infrared LED (8×8 LEDs) lit box (white PVC squared box; 40×40 cm^2; height 12.5 cm. An infrared-sensitive tube camera and a white light source were mounted to the ceiling above the observation chamber to track the animal. The total distance traveled (cm) was recorded and analyzed using the Noldus Ethovision XT Video Tracking System (Version 7.0.418; Noldus, Wageningen, The Netherlands). The intensity of the light within the activity cages (measured in the centre at the level of the floor) ranged between 4 and 8 LUX.
The rats were pretreated with test compound or vehicle at 60 min before the start of the activity recordings and placed into individual cages. The rats were challenged with JNJ-42153605 (3-(cyclopropylmethyl)-7-(4-phenylpiperidin-1-yl)-8-(trifluoromethyl)[1,2,4]triazolo[4,3-a]pyridine; WO2010/130424; Cid et al. J. Med. Chem. 2012, 55, 8770-8789) (20 mg/kg, i.v.) 30 min before the start of the activity recording combined with scopolamine (0.16 mg/kg, i.v.) just before the start of the activity measurements. Immediately after the injection of scopolamine, the rats were placed into the activity monitors and total distance travelled over the first 30 min was measured.
Solvent-Pretreated Control Rats.
Animals receiving the combination of JNJ-42153605 and scopolamine (n=433) almost always travelled a distance of less than 1500 cm (<1500 cm) (only 2.5% of the control rats travelled a distance of more than 1500 cm (>1500 cm)). On the other hand, animals challenged with scopolamine alone (n=215) always travelled a total distance of more than 1500 cm (>1500 cm) and almost always (in 95.8% of the rats) a distance of more than 4400 cm (>4400 cm). […] For reversal of the inhibitory effect of JNJ-42153605 on the scopolamine-induced hyperlocomotion, the following all-or-none criteria were adopted: (1) reversal: total distance >1500 cm.

[3] = target: T1, human mGlu2 receptor (Homo sapiens, UniProt Q14416); assay: [35S]GTPγS binding assay (mGluR2 negative allosteric modulation, glutamate ~EC80 60 μM); assay type: biochemical; details: for Emax: read-out: GTPγS-hmGluR2 anGT Emax; for IC50: membranes from CHO cells transfected with human mGlu2 receptor, glutamate ~EC80 (60 μM), pIC50 = −log IC50 (M), read-out: GTPγS-hmGluR2 anGT pIC50 (converted)
T1 construct: expressed in transfected cells; host or cells: CHO cells
T1 sequence (Q14416 19-872): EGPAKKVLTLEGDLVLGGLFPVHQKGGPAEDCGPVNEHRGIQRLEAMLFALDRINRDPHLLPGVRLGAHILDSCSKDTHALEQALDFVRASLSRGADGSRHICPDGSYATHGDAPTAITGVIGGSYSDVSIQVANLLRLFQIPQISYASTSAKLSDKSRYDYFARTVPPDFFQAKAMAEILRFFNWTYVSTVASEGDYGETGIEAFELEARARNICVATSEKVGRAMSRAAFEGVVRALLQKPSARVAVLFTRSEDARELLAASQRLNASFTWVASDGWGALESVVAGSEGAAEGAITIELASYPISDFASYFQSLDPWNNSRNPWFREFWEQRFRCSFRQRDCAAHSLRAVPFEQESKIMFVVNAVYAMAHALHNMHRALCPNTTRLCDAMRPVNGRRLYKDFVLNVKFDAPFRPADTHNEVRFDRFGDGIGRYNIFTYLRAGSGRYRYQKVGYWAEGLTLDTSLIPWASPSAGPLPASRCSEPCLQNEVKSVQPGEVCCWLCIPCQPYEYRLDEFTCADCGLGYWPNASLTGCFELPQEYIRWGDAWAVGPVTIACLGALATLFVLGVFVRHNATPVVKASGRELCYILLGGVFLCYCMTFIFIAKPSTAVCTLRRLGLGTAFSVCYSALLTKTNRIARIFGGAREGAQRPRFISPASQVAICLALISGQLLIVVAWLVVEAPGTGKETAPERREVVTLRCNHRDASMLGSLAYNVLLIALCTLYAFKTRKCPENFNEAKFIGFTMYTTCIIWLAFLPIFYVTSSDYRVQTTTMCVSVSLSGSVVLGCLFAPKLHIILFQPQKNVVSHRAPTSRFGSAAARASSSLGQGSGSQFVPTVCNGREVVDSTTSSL
Procedure: 1) [^35S]GTPγS Binding Assay
[^35S]GTPγS Binding Assay
Total reaction volume was 200 μl. […] Membrane-bound radioactivity was counted in a Topcount.

[4] = maximal % inhibition relative to the control glutamate response (EC80 glutamate)

| Compound | melting point [°C] | ED50 [1] [mg/kg] | ED50 [2] [mg/kg] | Emax [3, 4] [%] | IC50 [3] [M] | ED50 SCOP JNJ-42153605 [2] [mg/kg] | GTPγS-hmGluR2 anGT Emax [3, 4] [%] |
| --- | --- | --- | --- | --- | --- | --- | --- |
| Cc1cc(C(=O)Nc2cnn3c2C(=O)N(c2ccc(C(F)(F)F)cc2)C[C@@H]3C)cnc1N (racemic) [Co. No. 187] | 277.76 | > 10 | 0.0794 | 109 | 1.51e-09 |  |  |
| Cc1cncc(C(=O)Nc2cnn3c2C(=O)N(c2ccc(C(F)(F)F)c(C)c2)C[C@@H]3C)c1 [Co. No. 115] | 151.53 |  | > 0.63 | 107 | 3.39e-09 |  |  |
| COc1cc(N2C[C@H](C)n3ncc(NC(=O)c4cncc(F)c4)c3C2=O)ccc1C(F)(F)F [Co. No. 116] | 162.96 |  | > 0.63 | 104 | 1e-08 |  |  |
| COc1cc(N2C[C@H](C)n3ncc(NC(=O)c4cncc(C)c4)c3C2=O)ccc1C(F)(F)F [Co. No. 117] | 166.32 |  | > 0.63 | 104 | 8.51e-09 |  |  |
| COc1cc(N2C[C@H](C)n3ncc(NC(=O)c4cnccn4)c3C2=O)ccc1C(F)(F)F [Co. No. 118] | 191.55 |  | > 0.63 | 108 | 4.27e-09 |  |  |
| Cc1ccncc1C(=O)Nc1cnn2c1C(=O)N(c1ccc(C(F)(F)F)c(C)c1)C[C@@H]2C [Co. No. 119] | 200.3 |  | > 0.63 | 107 | 8.32e-09 |  |  |
| COc1cncc(C(=O)Nc2cnn3c2C(=O)N(c2ccc(C(F)(F)F)c(Cl)c2)C[C@@H]3C)c1C [Co. No. 121] | 160.45 |  | > 0.63 | 106 | 2.09e-08 |  |  |
| COc1cncc(C(=O)Nc2cnn3c2C(=O)N(c2ccc(C(F)(F)F)cc2)C[C@@H]3C)c1C [Co. No. 122] | 181.87 |  | > 0.63 | 105 | 1.91e-07 |  |  |
| COc1cc(N2C[C@H](C)n3ncc(NC(=O)c4ccnc(C)c4)c3C2=O)ccc1C(F)(F)F [Co. No. 123] | 157.12 |  | > 0.63 | 107 | 2.63e-08 |  |  |
| C[C@H]1CN(c2ccc(C(F)(F)F)c(F)c2)C(=O)c2c(NC(=O)c3cncc(F)c3)cnn21 [Co. No. 124] | 217.01 |  | > 0.63 | 109 | 9.55e-09 |  |  |
| C[C@H]1CN(c2ccc(C(F)(F)F)c(F)c2)C(=O)c2c(NC(=O)c3cccnc3)cnn21 [Co. No. 126] | 226.14 |  |  |  | 4.17e-09 | >0.63 | 110 |
| C[C@H]1CN(c2ccc(C(F)(F)F)c(F)c2)C(=O)c2c(NC(=O)c3cnccn3)cnn21 [Co. No. 127] | 236.55 |  | > 0.63 | 104 | 6.61e-09 |  |  |
| Cc1cncc(C(=O)Nc2cnn3c2C(=O)N(c2ccc(C(F)(F)F)c(F)c2)C[C@@H]3C)c1 [Co. No. 128] | 163.67 |  | > 0.63 | 103 | 6.92e-09 |  |  |
| COc1cc(N2C[C@H](C)n3ncc(NC(=O)c4cccnc4)c3C2=O)ccc1C(F)(F)F [Co. No. 147] | 186.11 |  | > 0.63 | 106 | 1.07e-08 |  |  |
| COc1cncc(C(=O)Nc2cnn3c2C(=O)N(c2ccc(Cl)c(Cl)c2)C[C@@H]3C)c1 [Co. No. 149] | 184.46 |  | > 0.63 | 107 | 1.66e-09 |  |  |
| COc1cncc(C(=O)Nc2cnn3c2C(=O)N(c2ccc(C(F)(F)F)c(Cl)c2)C[C@@H]3C)c1 [Co. No. 150] | 133.07 |  | > 0.63 | 107 | 1.66e-09 |  |  |
| COc1cncc(C(=O)Nc2cnn3c2C(=O)N(c2ccc(C(F)(F)F)c(C)c2)C[C@@H]3C)c1 [Co. No. 151] | 135.98 |  | > 0.63 | 106 | 3.16e-09 |  |  |

| Compound | melting point [°C] | ED50 [1] [mg/kg] | ED50 [2] [mg/kg] | Emax [3, 4] [%] | IC50 [3] [M] | ED50 SCOP JNJ-42153605 [2] [mg/kg] | GTPγS-hmGluR2 anGT Emax [3, 4] [%] |
| --- | --- | --- | --- | --- | --- | --- | --- |
| COc1cncc(C(=O)Nc2cnn3c2C(=O)N(c2ccc(C(F)(F)F)c(OC)c2)C[C@@H]3C)c1 [Co. No. 152] | 115.19 |  | > 0.63 | 106 | 9.77e-09 |  |  |
| COc1cncc(C(=O)Nc2cnn3c2C(=O)N(c2ccc(C(F)(F)F)c(F)c2)C[C@@H]3C)c1 [Co. No. 153] | 143.17 |  | > 0.63 | 106 | 1.35e-08 |  |  |
| Cc1cc(C(=O)Nc2cnn3c2C(=O)N(c2ccc(C(F)(F)F)c(Cl)c2)C[C@@H]3C)cc(C)n1 [Co. No. 172] |  | > 40 | 0.32 | 110 | 1.32e-09 |  |  |
| C[C@H]1CN(c2ccc(C(F)(F)F)cc2)C(=O)c2c(NC(=O)c3cccc(S(N)(=O)=O)c3)cnn21 [Co. No. 177] | 280.43 |  | > 0.63 | 109 | 1.66e-09 |  |  |
| C[C@H]1CN(c2ccc(SC(F)(F)F)cc2)C(=O)c2c(NC(=O)c3cccnc3)cnn21 [Co. No. 179] | 110.73 |  | > 0.63 | 106 | 5.89e-09 |  |  |
| Cc1cc(C(=O)Nc2cnn3c2C(=O)N(c2ccc(C(F)(F)F)c(Cl)c2)C[C@@H]3C)nc(N)n1 [Co. No. 181] | 258.12 |  | > 0.63 | 101 | 5.75e-09 |  |  |
| COc1cncc(C(=O)Nc2cnn3c2C(=O)N(c2ccc(C(F)(F)F)cc2)C[C@@H]3C)n1 [Co. No. 183] | 185.23 |  | 0.318 | 114 | 2.24e-09 |  |  |
| CNc1ncccc1C(=O)Nc1cnn2c1C(=O)N(c1ccc(C(F)(F)F)cc1)C[C@@H]2C [Co. No. 194] | 161.97 |  | 0.318 | 113 | 1.29e-09 |  |  |
| C[C@H]1CN(c2ccc(Cl)cc2)C(=O)c2c(NC(=O)c3cccnc3N)cnn21 [Co. No. 198] | 209.11 |  | > 0.63 | 109 | 4.07e-09 |  |  |
| Cc1cnc(N)c(C(=O)Nc2cnn3c2C(=O)N(c2ccc(Cl)c(Cl)c2)C[C@@H]3C)c1 [Co. No. 199] | 220.49 |  | 0.08 | 109 | 9.77e-10 |  |  |
| Cc1cnc(N)c(C(=O)Nc2cnn3c2C(=O)N(c2ccc(S(F)(F)(F)(F)F)cc2)C[C@@H]3C)c1 [Co. No. 200] | 197.51 |  | > 0.63 | 111 | 1.48e-09 |  |  |
| C[C@H]1CN(c2ccc(S(F)(F)(F)(F)F)cc2)C(=O)c2c(NC(=O)c3cccnc3N)cnn21 [Co. No. 202] | 223.96 |  | 0.2 | 108 | 1.15e-09 |  |  |
| Cc1cc(C(=O)Nc2cnn3c2C(=O)N(c2ccc(Cl)cc2)C[C@@H]3C)cc(N)n1 [Co. No. 203] | 223.01 |  | > 0.63 | 105 | 1.12e-08 |  |  |
| C[C@H]1CN(c2ccc(C(F)(F)F)cc2)C(=O)c2c(NC(=O)c3ccc(N)cc3)cnn21 [Co. No. 204] | 250.78 |  | 0.318 | 107 | 2.82e-09 |  |  |
| C[C@H]1CN(c2ccc(C(F)(F)F)cc2)C(=O)c2c(NC(=O)c3nccnc3N)cnn21 [Co. No. 206, 3-Amino-N-[(7S)-7-methyl-4-oxo-5-[4-(trifluoromethyl)phenyl]-6,7-dihydropyrazolo[1,5-a]pyrazin-3-yl]pyrazine-2-carboxamide] | 205.79 |  | 0.505 | 110 | 3.02e-09 |  |  |
| C[C@H]1CN(c2ccc(C(F)(F)F)c(CF)c2)C(=O)c2c(NC(=O)c3cccnc3N)cnn21 [Co. No. 210] | 176.26 |  | 0.32 | 106 | 2.09e-09 |  |  |

Reference: patent US10519162B2, “6,7-dihydropyrazolo[1,5-α]pyrazin-4(5H)-one compounds and their use as negative allosteric modulators of mGluR2 receptors” (Janssen Pharmaceutica NV, priority 2014, dated 2019)
